The values that follow come from patent US20110059226A1, “METHOD FOR LOADING A MOLECULE INTO A POROUS SUBSTRATE” (priority 2009, published 2011).

Common to all, as to format: physicochemical
The nature of data set [1]: Loading of Ibuprofen into mesoporous silica (MCM-41) from liquid carbon dioxide, adsorbed amount measured by TGA. The conditions noted are these: for Maximum loaded amount of Ibuprofen in mesoporous silica: pure CO2 (I), 20° C., 55±2 bar. The source says:
The mesoporous particles were placed in a bag (fabric of polypropene, PP 3333, permeability 105 DIN, Derma AB, Sweden), which was permeable for the solvent and dissolved Ibuprofen molecules but kept the mesoporous particles in one place in the reactor (see below). The amount of mesoporous particles was 0.1 g in all experiments, while the amount of Ibuprofen was varied for different loading experiments. The particles in the bag and Ibuprofen crystals (thoroughly ground in a mortar before use) were placed in a glass beaker (400 ml), which was placed in an in-house built stainless steel reactor (1.7 L) with two sapphire glass windows. The reactor was first pressurized with carbon dioxide and thereafter 200 ml CO2 (I) or CO2 (I)+5 mol-% cosolvent was introduced into the glass beaker at 20° C. and 55±2 bar. […] After the loading period (15 minutes to 18 hours), the reactor was depressurized and the bag containing the mesoporous particles with Ibuprofen was retrieved. The samples were characterized with TGA using a TGA 7 instrument (Perkin Elmer Inc., USA). The temperature program used consisted of an initial part with a heating rate of 20° C./min from 20° C. to 95° C., followed by an isothermal pause for 60 minutes at 95° C., and finally heating from 95° C. up to 800° C. at a heating rate of 2° C./min. All TGA measurements were performed under 20 ml/min flow of N2 gas. […] The loading time and concentration of Ibuprofen in the CO2 (I) was varied in the experiments and each experiment is represented by one point in the graph in FIG. 1.

Data set [2] can be described thus: Solubility limit of Ibuprofen in CO2 (I) and CO2 (I) with 5 mol % cosolvent, by visual inspection. Particulars: room temperature, 55±2 bar, 9 hours. How it is done:
The solubility of Ibuprofen in CO2 (I) and CO2 (I) with 5 mol % of cosolvent was determined by visual inspection of sample mixtures of the solvent(s) and Ibuprofen at room temperature and 55±2 bar, and the solubility limit was considered to be reached when particles of Ibuprofen were visible.

Data set [3] is described as follows: Release of Ibuprofen from mesoporous silica into water. The conditions noted are these: within one minute of the mesoporous silica being added to water. The source says: Fifty percent of the Ibuprofen is released into water within one minute of the mesoporous silica being added to water. This is desirable as a quicker release for an analgesic drug will result in faster relief for the individual taking the analgesic drug.

As to `CC(C)Cc1ccc(C(C)C(=O)O)cc1` (stereo not shown) [Ibuprofen], the “Maximum adsorbed amount of Ibuprofen in the mesoporous particles” value in data set [1] (0.34 wt-% Ibuprofen in CO2 (I) + acetone (5 mol-%)) was “approximately 50 mg Ibuprofen/g SiO2”; in data set [1] (0.34 wt-% Ibuprofen in CO2 (I) + cyclohexane (5 mol-%)) it was “approximately 200 mg Ibuprofen/g SiO2”; in data set [1] (0.34 wt-% Ibuprofen in CO2 (I) + methanol (5 mol-%)) it was “approximately 50 mg Ibuprofen/g SiO2”. Besides, the “Maximum loaded amount of Ibuprofen in mesoporous silica” value is on record as “much lower loading” in data set [1] (Ibuprofen concentration below the solubility limit (0.04 wt-%)) and about 300 mg Ibuprofen/g SiO2 in data set [1] (solution saturated with Ibuprofen (0.34 or 0.90 wt-% nominal), 7 to 12 hours). Besides, the Solubility limit in data set [2] (Solvent CO2 (I) + acetone (5 mol %)) is 1.5-2.0 wt-%; in data set [2] (Solvent CO2 (I) + cyclohexane (5 mol %)), 1.0-1.5 wt-%; in data set [2] (Solvent CO2 (I) + methanol (5 mol %)) it was over 2.0 wt-%; in data set [2] (Solvent CO2 (I)), 0.20-0.25 wt-%. Also, the “Ibuprofen released into water from mesoporous silica” value in data set [3] is reported as “Fifty”.
